From US20240217974A1, “ISOQUINOLONE COMPOUND AND USE THEREOF” (Suzhou Suncadia Biopharmaceuticals Co., Ltd., priority 2021, published 2024)
pIC50: −log10 of the molar value. Where two headings read alike, the source gives them in different places.

How the values were obtained:
PDE3A = molecular target: T1, PDE3A (Homo sapiens, UniProt Q14432); experiment: In vitro PDE3A enzyme activity assay (IMAP FP-based); format: biochemical
T1 construct: purchased BPS 60030
Method: (§1) The formula for calculating inhibition rates is: inhibition rate=M/(M−Mcontrol)×100; IC50 values were calculated from concentration-inhibition rate curves fitted.

[1] = recent phase II clinical data; cited from earlier work
[2] = mouse, in vivo, inhaled or intranasal
Method: To evaluate the pharmacokinetic characteristics of test samples in […] and their distributions in lung tissue after intratracheal administration.
0.5 g of tween 80 was weighed out and dissolved in 50 mL of a pH 2.5 citric acid/disodium hydrogen phosphate buffered salt solution for later use.
1.0 mg of test compound was weighed out and dissolved in a proper amount of the tween solution to prepare a 0.03 mg/mL for later use.
0.5 g of CMC-Na and 0.5 g of tween 20 were weighed out and well mixed with 50 mL of 0.9% normal saline solution to obtain a 1% CMC-Na and tween 20 solution for later use.
1.0 mg of test compound was weighed out, added to 10 mL of the above solution, dispersed ultrasonically, and well stirred to obtain a suspension for later use.
Mice were anesthetized with isoflurane gas and then administered compounds via the trachea. […] 200 μL of whole blood was collected, then anticoagulated with EDTA-K2, and centrifuged at 2-8° C. at a rate of about 6800 g for 6 min. The resulting plasma was transferred to properly labeled test tubes within 1 h of blood collection/centrifugation and stored at −80° C. […] The collected tissue samples were transferred to properly labeled test tubes and stored at −80° C.
Plasma samples (30.0 μL) were added to 1.5 mL centrifuge tubes, and 150 μL of internal standard working solution was added. […]

PDE4B1 = molecular target: T2, PDE4B1 (Homo sapiens, UniProt Q07343); experiment: In vitro PDE4B enzyme activity assay (IMAP FP-based); format: biochemical
T2 construct: purchased BPS 60041
T2 sequence (Q07343 whole entry): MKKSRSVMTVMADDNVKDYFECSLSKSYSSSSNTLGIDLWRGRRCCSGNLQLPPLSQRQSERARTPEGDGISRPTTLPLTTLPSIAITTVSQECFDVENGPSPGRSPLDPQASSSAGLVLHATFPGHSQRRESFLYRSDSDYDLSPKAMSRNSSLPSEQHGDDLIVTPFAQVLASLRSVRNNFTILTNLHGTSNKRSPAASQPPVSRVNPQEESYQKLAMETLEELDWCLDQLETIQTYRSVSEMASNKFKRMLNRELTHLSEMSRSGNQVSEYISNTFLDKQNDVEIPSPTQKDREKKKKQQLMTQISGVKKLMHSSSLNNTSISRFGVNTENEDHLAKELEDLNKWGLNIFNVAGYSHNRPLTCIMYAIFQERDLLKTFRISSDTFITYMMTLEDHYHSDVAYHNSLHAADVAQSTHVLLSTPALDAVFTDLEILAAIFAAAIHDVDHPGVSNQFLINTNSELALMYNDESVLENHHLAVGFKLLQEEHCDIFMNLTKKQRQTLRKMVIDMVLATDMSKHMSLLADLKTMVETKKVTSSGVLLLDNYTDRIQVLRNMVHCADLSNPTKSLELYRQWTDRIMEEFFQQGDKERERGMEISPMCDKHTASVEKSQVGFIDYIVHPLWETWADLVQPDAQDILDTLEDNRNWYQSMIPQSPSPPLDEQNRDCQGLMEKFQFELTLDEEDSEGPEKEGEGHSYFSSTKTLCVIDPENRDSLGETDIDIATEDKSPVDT
Method: as §1

T1 sequence (Q14432 669-1141 limits assumed): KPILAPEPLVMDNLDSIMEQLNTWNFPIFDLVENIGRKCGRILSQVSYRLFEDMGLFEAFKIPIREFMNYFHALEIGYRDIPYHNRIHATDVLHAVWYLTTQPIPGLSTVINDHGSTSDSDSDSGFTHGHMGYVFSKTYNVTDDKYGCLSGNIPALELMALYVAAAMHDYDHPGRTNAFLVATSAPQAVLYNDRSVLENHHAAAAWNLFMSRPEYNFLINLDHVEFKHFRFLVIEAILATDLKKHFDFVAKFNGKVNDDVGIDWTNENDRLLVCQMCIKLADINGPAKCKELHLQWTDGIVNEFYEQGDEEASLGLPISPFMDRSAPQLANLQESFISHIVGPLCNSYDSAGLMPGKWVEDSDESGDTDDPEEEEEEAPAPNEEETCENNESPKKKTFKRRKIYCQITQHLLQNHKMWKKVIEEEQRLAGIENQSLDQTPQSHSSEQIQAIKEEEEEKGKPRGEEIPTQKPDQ

Compound	IC50 (PDE3A) [nM]	Inhibition rate (%) PDE3A (500 nM) (PDE3A; compound at 500 nM) [%]	bronchodilation and symptoms in patients with chronic obstructive pulmonary disease [1]	tolerability / adverse events [1]	Plasma T1/2 [2] [min]	Plasma Tmax [2] [min]	Inhibition rate (%) PDE4B1 (2000 nM) (PDE4B1; compound at 2000 nM) [%]	IC50 (PDE4B1; read-out: IC50 (nM) PDE4B1) [nM]	pIC50 (PDE4B1)	inhibition at 2 µM (PDE4B1; read-out: Inhibition rate (%) PDE4B1 (2000 nM)) [%]
9,10-dimethoxy-2-(2,4,6-trimethylphenylimino)-3-(N-carbamoyl-2-aminoethyl)-3,4,6,7-tetrahydro-2H-pyrimido[6,l-a]isoquinolin-4-one [RPL554]	0.25	99.2	significantly improve bronchodilation and symptoms	well tolerated	52.8	15	64.2	110	–	–
CCOc1cc2c(cc1OC)-c1cc(N(CCN3CCOC3=O)c3c(C)cc(C)cc3C)nc(=O)n1CC2 [WX001]	–	–	–	–	–	–	–	–	6.06	66.3
